Experimental data taken from EP0246774A1, “Chemical compounds” (SMITH KLINE & FRENCH LABORATORIES LIMITED, priority 1986, dated 1987).

System: histamine stimulated gastric acid secretion
Test: Rat lumen perfused stomach, histamine stimulated gastric acid secretion (modified Ghosh and Schild procedure)
Type: in vivo
Settings: intravenous administration
From the text: A. Rat : Lumen perfused stomach (histamine stimulated gastric acid secretion).
Using a modification of the procedure described by Ghosh and Schild (Br. J. Pharmacology, 13, 54, 1958), ED50 values after intravenous administration were obtained as follows: […]

| SMILES | ED50 [µmol/kg] |
| --- | --- |
| COc1ccc2[nH]c([S+]([O-])Cc3nccc(N4CCOCC4)c3F)nc2c1 (stereo not shown) [Example 2, 5-methoxy-2-(4-morpholino-3-fluoro-2-pyridylmethylsulphinyl)-(lH)-benzimidazole] | 0.7 |
| COc1cc2[nH]c([S+]([O-])Cc3nccc(N4CCOCC4)c3F)nc2cc1C (stereo not shown) [Example 14, 5-methyl-6-methoxy-2-(4-morpholino-3-fluoro-2-pyridylmethylsulphinyl)-(lH)-benzimidazole] | 1.51 |

Same assay, conditions: intravenous administration, dose not given

| SMILES | % inhibition at µ/kg [%] |
| --- | --- |
| COc1ccc2[nH]c([S+]([O-])Cc3cc(N4CCOCC4)c(F)cn3)nc2c1 (stereo not shown) [Example 4, 5-methoxy-2-(4-morpholino-5-fluoro-2-pyridvlmethylsulphinyl)-(lH)-benzimidazole] | 51 |
| COc1ccc2[nH]c([S+]([O-])Cc3nccc(N(C)C)c3F)nc2c1 (stereo not shown) [Example 6, 5-methoxy-2-(4-dimethylamino-3-fluoro-2-pyridylmethylsulphinyl)-(1H)-benzimidazole] | 26 |
| COc1ccc2[nH]c([S+]([O-])Cc3cc(N(C)C)c(F)cn3)nc2c1 (stereo not shown) [Example 8, 5-methoxy-2-(4-dimethylamino-5-fluoro-2-pyridylmethylsulphinyl)-(1H)-benzimidazole] | 37 |
| COc1cc2nc([S+]([O-])Cc3nccc(N4CCOCC4)c3F)[nH]c2cc1OC (stereo not shown) [Example 12, 5,6-dimethoxy-2-(4-morpholino-3-fluoro-2-pyridylmethylsulphinvl)-(lH)-benzimidazole] | 33 |
| COc1cc2nc([S+]([O-])Cc3nccc(N(C)C)c3F)[nH]c2cc1OC (stereo not shown) [Example 16, 5,6-dimethoxy-2-(4-dimethylamino-3-fluoro-2-pyridylmethylsulphinyl)-(lH)-benzimidazole] | 46 |
